≈ marks a conversion by molar mass, not a printed value. Structures can show the parent of a compound that is named as a salt.
How the values were obtained:
Ps. aeruginosa, 32121 = experiment: Antibacterial activity (MIC), standard method of the Japan Society of Chemotherapy; type: cell-based; details: Pseudomonas aeruginosa
Protocol: (§1) Antibacterial activities of the compounds of this invention were measured in accordance to the standard method designated by the Japan Society of Chemotherapy, with the results shown as MIC values (microgram/ml) units in the following table. For comparison with the MIC values of the compounds of this invention, MIC values of levofloxacin (LVFX), ciprofloxacin (CPFX) and 7-[3-(R)-(1-aminocyclopropyl)pyrrolidin-1-yl]-6-fluoro-1-[2-(S)-fluoro-1-(R)-cyclopropyl]-8-methyl-1,4-dihydro-4-oxoquinoline-3-carboxylic acid (Reference drug 1), which is described in PCT/JP96/00208, are also shown in the table.

Ps. aeruginosa, 32104 = experiment: as above; type: cell-based; details: Pseudomonas aeruginosa
Protocol: as §1

S. aureus, 209P = experiment: as above; type: cell-based; details: Staphylococcus aureus
Protocol: as §1

S. epidermidis, 56500 = experiment: as above; type: cell-based; details: Staphylococcus epidermidis
Protocol: as §1

Str. pneumoniae J24 = experiment: as above; type: cell-based; details: Streptococcus pneumoniae
Protocol: as §1

[1] = system: Ps. maltophilia, IID-1275; experiment: as above; type: cell-based; details: Stenotrophomonas maltophilia, IID1275
Protocol: as §1

K. pneumoniae, Type 1 = experiment: as above; type: cell-based; details: Klebsiella pneumoniae, TYPE1
Protocol: as §1

Pr. vulgalis, 08601 = experiment: as above; type: cell-based
Protocol: as §1

Str. pyogenes, G-36 = experiment: as above; type: cell-based; details: Streptococcus pyogenes, G36
Protocol: as §1

S. aureus, 870307 = experiment: as above; type: cell-based; details: Staphylococcus aureus
Protocol: as §1

[2] = system: Str. faecalis, ATCC 19433; experiment: as above; type: cell-based; details: Enterococcus faecalis, ATCC19433
Protocol: as §1

E. coli, NIHJ = experiment: as above; type: cell-based; details: Escherichia coli
Protocol: as §1

Ser. marcescens, 10100 = experiment: as above; type: cell-based; details: Serratia marcescens
Protocol: as §1

S. flexneri, 2A 5503 = experiment: as above; type: cell-based; details: Shigella flexneri, 2A5503
Protocol: as §1

| Structure (SMILES) | MIC (Ps. aeruginosa, 32121) | MIC (Ps. aeruginosa, 32104) | MIC (S. aureus, 209P) | MIC (S. epidermidis, 56500) | MIC (Str. pneumoniae J24) | MIC [1] | MIC (K. pneumoniae, Type 1) | MIC (Pr. vulgalis, 08601) | MIC (Str. pyogenes, G-36) | MIC (S. aureus, 870307) | MIC [2] | MIC (E. coli, NIHJ) | MIC (Ser. marcescens, 10100) | MIC (S. flexneri, 2A 5503) | melting point |
| --- | --- | --- | --- | --- | --- | --- | --- | --- | --- | --- | --- | --- | --- | --- | --- |
| O=C(O)c1cn(C2CC2)c2cc(N3CCNCC3)c(F)cc2c1=O [CPFX, ciprofloxacin, reference compound] | 0.025 µg/mL (≈ 0.0754 µM) | 0.005 µg/mL (≈ 0.0151 µM) | 0.1 µg/mL (≈ 0.302 µM) | 0.2 µg/mL (≈ 0.604 µM) | 0.1 µg/mL (≈ 0.302 µM) | 0.78 µg/mL (≈ 2.35 µM) | 0.025 µg/mL (≈ 0.0754 µM) | ≤ 0.003 µg/mL | 1.56 µg/mL (≈ 4.71 µM) | 3.13 µg/mL (≈ 9.45 µM) | 0.78 µg/mL (≈ 2.35 µM) | ≤ 0.003 µg/mL | 0.025 µg/mL (≈ 0.0754 µM) | 0.006 µg/mL (≈ 0.0181 µM) |  |
| NC1([C@@H]2CCN(c3ccc4c(=O)c(C(=O)O)cn(C5CC5)c4c3OC(F)F)C2)CC1 [Example 6, 7-[3-(R)-(1-aminocyclopropyl)pyrrolidin-1-yl]-1-cyclopropyl-8-difluoromethoxy-1,4-dihydro-4-oxoquinoline-3-carboxylic acid] |  |  |  |  |  |  |  |  |  |  |  |  |  |  | 206 to 207.5 °C |
| CCNC1([C@@H]2CCN(c3ccc4c(=O)c(C(=O)O)cn([C@@H]5C[C@@H]5F)c4c3C)C2)CC1 [Example 14, 7-[3-(R)-[1-(ethylamino)cyclopropyl]pyrrolidin-1-yl]-1-[2-(S)-fluoro-1-(R)-cyclopropyl]-8-methyl-1,4-dihydro-4-oxoquinoline-3-carboxylic acid] | 0.05 µg/mL (≈ 0.121 µM) | 0.1 µg/mL (≈ 0.242 µM) | ≤ 0.003 µg/mL | 0.006 µg/mL (≈ 0.0145 µM) | ≤ 0.003 µg/mL | 0.2 µg/mL (≈ 0.484 µM) | 0.05 µg/mL (≈ 0.121 µM) | 0.012 µg/mL (≈ 0.029 µM) | ≤ 0.003 µg/mL | 0.012 µg/mL (≈ 0.029 µM) | 0.025 µg/mL (≈ 0.0605 µM) | ≤ 0.003 µg/mL | 0.1 µg/mL (≈ 0.242 µM) | 0.006 µg/mL (≈ 0.0145 µM) | 191 to 194 °C |
| NC1([C@@H]2CCN(c3ccc4c(=O)c(C(=O)O)cn([C@@H]5C[C@@H]5F)c4n3)C2)CC1 [Example 4, 7-[3-(R)-(1-aminocyclopropyl)pyrrolidin-1-yl]-1-[2-(S)-fluoro-1-(R)-cyclopropyl]-1,4-dihydro-4-oxo-1,8-naphthylidine-3-carboxylic acid] |  |  |  |  |  |  |  |  |  |  |  |  |  |  | 216 to 218 °C |
| Cc1c(N2CC[C@@H](C3(N)CC3)C2)cc(O)c2c(=O)c(C(=O)O)cn([C@@H]3C[C@@H]3F)c12 [Example 17, 7-[3-(R)-(1-aminocyclopropyl)pyrrolidin-1-yl]-1-[2-(S)-fluoro-1-(R)-cyclopropyl]-5-hydroxy-8-methyl-1,4-dihydro-4-oxoquinoline-3-carboxylic acid] |  |  |  |  |  |  |  |  |  |  |  |  |  |  | 203 to 206 °C |
| Cc1c(N2CC[C@@H](C3(N)CC3)C2)ccc2c(=O)c(C(=O)O)cn([C@@H]3C[C@@H]3F)c12 (as salt: HCl) (hydrate or solvate) [Example 1, 7-[3-(R)-(1-aminocyclopropyl)pyrrolidin-1-yl]-1-[2-(S)-fluoro-1-(R)-cyclopropyl]-1,4-dihydro-8-methyl-4-oxoquinoline-3-carboxylic acid] |  |  |  |  |  |  |  |  |  |  |  |  |  |  | 228 to 230 °C |
| CNC1([C@@H]2CCN(c3ccc4c(=O)c(C(=O)O)cn([C@@H]5C[C@@H]5F)c4c3C)C2)CC1 [Example 10, 1-[2-(S)-fluoro-1-(R)-cyclopropyl]-8-methyl-7-[3-(R)-[1-(methylamino)cyclopropyl]pyrrolidin-1-yl]-1,4-dihydro-4-oxoquinoline-3-carboxylic acid] | 0.025 µg/mL (≈ 0.0626 µM) | 0.1 µg/mL (≈ 0.25 µM) | ≤ 0.003 µg/mL | 0.006 µg/mL (≈ 0.015 µM) | ≤ 0.003 µg/mL | 0.1 µg/mL (≈ 0.25 µM) | 0.025 µg/mL (≈ 0.0626 µM) | 0.006 µg/mL (≈ 0.015 µM) | ≤ 0.003 µg/mL | 0.025 µg/mL (≈ 0.0626 µM) | 0.012 µg/mL (≈ 0.03 µM) | ≤ 0.003 µg/mL | 0.05 µg/mL (≈ 0.125 µM) | 0.006 µg/mL (≈ 0.015 µM) | 223 to 224 °C |
| NC1([C@@H]2CCN(c3ccc4c(=O)c(C(=O)O)cn([C@@H]5C[C@@H]5F)c4c3)C2)CC1 [Example 5, 7-[3-(R)-(1-aminocyclopropyl)pyrrolidin-1-yl]-1-[2-(S)-fluoro-1-(R)-cyclopropyl]-1,4-dihydro-4-oxoquinoline-3-carboxylic acid] |  |  |  |  |  |  |  |  |  |  |  |  |  |  | 251 to 253 °C |
| N#Cc1c(N2CC[C@@H](C3(N)CC3)C2)ccc2c(=O)c(C(=O)O)cn([C@@H]3C[C@@H]3F)c12 [Example 18, 7-[3-(R)-(1-aminocyclopropyl)pyrrolidin-1-yl]-8-cyano-1-[2-(S)-fluoro-1-(R)-cyclopropyl]-1,4-dihydro-4-oxoquinoline-3-carboxylic acid] |  |  |  |  |  |  |  |  |  |  |  |  |  |  | 138 to 140 °C |
| C[C@H]1COc2c(N3CCN(C)CC3)c(F)cc3c(=O)c(C(=O)O)cn1c23 [LVFX, levofloxacin, reference compound] | 0.1 µg/mL (≈ 0.277 µM) | 0.2 µg/mL (≈ 0.553 µM) | 0.2 µg/mL (≈ 0.553 µM) | 0.39 µg/mL (≈ 1.08 µM) | 0.78 µg/mL (≈ 2.16 µM) | 0.39 µg/mL (≈ 1.08 µM) | 0.1 µg/mL (≈ 0.277 µM) | 0.012 µg/mL (≈ 0.0332 µM) | 0.2 µg/mL (≈ 0.553 µM) | > 6.25 µg/mL | 0.78 µg/mL (≈ 2.16 µM) | 0.012 µg/mL (≈ 0.0332 µM) | 0.1 µg/mL (≈ 0.277 µM) | 0.025 µg/mL (≈ 0.0692 µM) |  |
| CNC1([C@@H]2CCN(c3ccc4c(=O)c(C(=O)O)cn5c4c3OC[C@@H]5C)C2)CC1 [Example 13, 2,3-dihydro-3-(S)-methyl-10-[3-(R)-[1-(methylamino)cyclopropyl]pyrrolidin-1-yl]-7-oxo-7H-pyrido[1,2,3-de][1,4]benzoxazine-6-carboxylic acid] |  |  |  |  |  |  |  |  |  |  |  |  |  |  | 227 to 229 °C |
| CNC1([C@@H]2CCN(c3ccc4c(=O)c(C(=O)O)cn([C@@H]5C[C@@H]5F)c4c3OC)C2)CC1 [Example 11, 1-[2-(S)-fluoro-1-(R)-cyclopropyl]-8-methoxy-7-[3-(R)-[1-(methylamino)cyclopropyl]pyrrolidin-1-yl]-1,4-dihydro-4-oxoquinoline-3-carboxylic acid] | 0.1 µg/mL (≈ 0.241 µM) | 0.2 µg/mL (≈ 0.481 µM) | ≤ 0.003 µg/mL | 0.012 µg/mL (≈ 0.0289 µM) | 0.006 µg/mL (≈ 0.0144 µM) | 0.2 µg/mL (≈ 0.481 µM) | 0.1 µg/mL (≈ 0.241 µM) | 0.012 µg/mL (≈ 0.0289 µM) | 0.012 µg/mL (≈ 0.0289 µM) | 0.05 µg/mL (≈ 0.12 µM) | 0.05 µg/mL (≈ 0.12 µM) | 0.006 µg/mL (≈ 0.0144 µM) | 0.2 µg/mL (≈ 0.481 µM) | 0.012 µg/mL (≈ 0.0289 µM) | 213 to 215 °C |
| C[C@H]1COc2c(N3CC[C@@H](C4(N)CC4)C3)ccc3c(=O)c(C(=O)O)cn1c23 (as salt: salt) [Example 9, 10-[3-(R)-(1-aminocyclopropyl)pyrrolidin-1-yl]-2,3-dihydro-3-(S)-methyl-7-oxo-7H-pyrido[1,2,3-de][1,4]benzoxazine-6-carboxylic acid] |  |  |  |  |  |  |  |  |  |  |  |  |  |  | 249 to 252 °C (dec.) |
| Cc1c(N2CC[C@@H](C3(N)CC3)C2)cc(N)c2c(=O)c(C(=O)O)cn([C@@H]3C[C@@H]3F)c12 [Example 7, 5-amino-7-[3-(R)-(1-aminocyclopropyl)pyrrolidin-1-yl]-1-[2-(S)-fluoro-1-(R)-cyclopropyl]-1,4-dihydro-8-methyl-4-oxoquinoline-3-carboxylic acid] |  |  |  |  |  |  |  |  |  |  |  |  |  |  | 240 to 242 °C (dec.) |
| NC1([C@@H]2CCN(c3ccc4c(=O)c(C(=O)O)cn([C@@H]5C[C@@H]5F)c4c3Cl)C2)CC1 [Example 16, 7-[3-(R)-(1-aminocyclopropyl)pyrrolidin-1-yl]-8-chloro-1-[2-(S)-fluoro-1-(R)-cyclopropyl]-1,4-dihydro-4-oxoquinoline-3-carboxylic acid] |  |  |  |  |  |  |  |  |  |  |  |  |  |  | 128 to 130 °C |
| COc1c(N2CC[C@@H](C3(N)CC3)C2)ccc2c(=O)c(C(=O)O)cn([C@@H]3C[C@@H]3F)c12 [Example 2, 7-[3-(R)-(1-aminocyclopropyl)pyrrolidin-1-yl]-1-[2-(S)-fluoro-1-(R)-cyclopropyl]-1,4-dihydro-8-methoxy-4-oxoquinoline-3-carboxylic acid] | 0.05 µg/mL (≈ 0.125 µM) | 0.2 µg/mL (≈ 0.498 µM) | ≤ 0.003 µg/mL | 0.012 µg/mL (≈ 0.0299 µM) | 0.006 µg/mL (≈ 0.0149 µM) | 0.2 µg/mL (≈ 0.498 µM) | 0.05 µg/mL (≈ 0.125 µM) | 0.012 µg/mL (≈ 0.0299 µM) | 0.006 µg/mL (≈ 0.0149 µM) | 0.05 µg/mL (≈ 0.125 µM) | 0.025 µg/mL (≈ 0.0623 µM) | ≤ 0.003 µg/mL | 0.1 µg/mL (≈ 0.249 µM) | 0.012 µg/mL (≈ 0.0299 µM) |  |
| COc1c(N2CC[C@@H](C3(N)CCC3)C2)ccc2c(=O)c(C(=O)O)cn([C@@H]3C[C@@H]3F)c12 (hydrate or solvate) [Example 19, 7-[3-(R)-(1-aminocyclobutyl)pyrrolidin-1-yl]-1-[2-(S)-fluoro-1-(R)-cyclopropyl]-8-methoxy-1,4-dihydro-4-oxoquinoline-3-carboxylic acid] |  |  |  |  |  |  |  |  |  |  |  |  |  |  | 174 °C |
| COc1c(N2CC[C@@H](C3(N)CC3)C2)cc(N)c2c(=O)c(C(=O)O)cn([C@@H]3C[C@@H]3F)c12 [Example 8, 5-amino-7-[3-(R)-(1-aminocyclopropyl)pyrrolidin-1-yl]-1-[2-(S)-fluoro-1-(R)-cyclopropyl]-1,4-dihydro-8-methoxy-4-oxoquinoline-3-carboxylic acid] |  |  |  |  |  |  |  |  |  |  |  |  |  |  | 172 to 178 °C (dec.) |

Source: US7902226B2, “Dehalogeno-compounds” (Daiichi Pharmaceutical Co., Ltd., priority 2000, dated 2011)
